Data: ChEMBL document CHEMBL4819143, “Discovery of JMJD7 inhibitors with the aid of virtual screening and bioactivity evaluation” (Bioorg Med Chem Lett, 2021)
Values belong to the compound of their own block, whether it stands above or below them.

Assays:
[1] = target: Bifunctional peptidase and (3S)-lysyl hydroxylase JMJD7 (Homo sapiens, UniProt P0C870); experiment: Inhibition of N-terminal His-tagged human JMJD7 (1 to 316 residues) expressed in Escherichia coli BL21 (DE3) luciferase based succinate-gloTM JmjC demethylase/hydroxylase assay
[2] = test system: BJ; experiment: Cytotoxicity against human BJ cells assessed as growth inhibition measured after 72 hrs by MTT assay
[3] = test system: T47D; experiment: Cytotoxicity against human T47D cells assessed as growth inhibition measured after 72 hrs by MTT assay
[4] = test system: SH-SY5Y; experiment: Cytotoxicity against human SH-SY5Y cells assessed as growth inhibition measured after 72 hrs by MTT assay
[5] = test system: HeLa; experiment: Cytotoxicity against human HeLa cells assessed as growth inhibition measured after 72 hrs by MTT assay
[6] = test system: Jurkat; experiment: Cytotoxicity against human Jurkat cells assessed as growth inhibition measured after 72 hrs by MTT assay
[7] = test system: SK-BR-3; experiment: Cytotoxicity against human SK-BR-3 cells assessed as growth inhibition measured after 72 hrs by MTT assay; details: SK-BR-3, 72 h

Chain of Bifunctional peptidase and (3S)-lysyl hydroxylase JMJD7 (P0C870 whole entry, the tested form may be a part): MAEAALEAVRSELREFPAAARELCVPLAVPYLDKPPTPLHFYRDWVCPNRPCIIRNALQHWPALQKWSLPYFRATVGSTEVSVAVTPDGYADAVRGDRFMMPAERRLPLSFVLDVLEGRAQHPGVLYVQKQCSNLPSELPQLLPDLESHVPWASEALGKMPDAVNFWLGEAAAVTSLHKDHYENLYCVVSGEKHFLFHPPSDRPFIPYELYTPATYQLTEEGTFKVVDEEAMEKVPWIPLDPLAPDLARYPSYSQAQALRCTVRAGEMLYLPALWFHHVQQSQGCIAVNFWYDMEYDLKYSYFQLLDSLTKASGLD

SMILES: COc1ccc(CCC(=O)Nc2ccccc2C(=O)O)cc1OC
IC50 [1]: 33.2 µM

SMILES: O=C(Oc1ccc([N+](=O)[O-])c2cccnc12)c1ccc(Cl)cc1Cl
IC50 [2]: > 100 µM | IC50 [3]: 9.4 µM | IC50 [4]: > 100 µM | IC50 [5]: 16.1 µM | IC50 [6]: 15 µM | IC50 [7]: 13.3 µM

SMILES: COc1cccc(-c2ccc(NC(=O)C3=C(C(=O)O)CCC3)c(F)c2)c1 [VIDOFLUDIMUS]
IC50 [1]: 7.16 µM

Other lines, results leading:

IC50 [1]: 11 µM
SMILES: CCCNC(=O)c1ccc(-c2nc3ccccc3s2)s1

IC50 [1]: 31.6 µM
SMILES: Oc1c(C(Nc2ccccn2)c2ccccc2)ccc2cccnc12 (stereo not given)
